From patent US20080207710A1, “Insulin Secretagogue Drugs” (TOUDAI TLO, LTD., priority 2004, published 2008)

Columns and labels:
[1] = tested on: pancreatic β cells (islets of Langerhans); assay: Glucose-stimulated insulin secretion from isolated islets of Langerhans; assay type: cell-based, mouse; conditions: for insulin secretion on stimulation with glucose: 24 hr with 10 or 100 nM GW501516, 16.7 mM glucose, 1 hr
Method: Animals, 6-week-old male C57BL/6J and Lepr^db/Lepr^db mice, were purchased from Clea Japan, Inc., and kept under the following conditions: room temperature, 25° C.; humidity, 60±10%; and 12 hr light/dark cycles (light period, 08:00 to 20:00). All animals were tamed for one week and then subjected to tests. The animals were given free access to food (commercial lab chow, pellet form CE-2, Clea Japan, Inc.) and water. Male C57BL/6J and Lepr^db/Lepr^db mice were used. After clamping the common bile duct at a point close to the duodenum outlet under Nembutal anesthetization, 1 mg/mL collagenase (Wako Pure Chemical Industries, Ltd., Japan) was injected into the common bile duct at a liver side. The pancreas was taken out and incubated at 37° C. for 13 min. Thereafter, Hank's balanced salt solution was added, the pancreas tissue suspension was shaken and then centrifuged to remove supernatants. The pancreas tissue was resuspended in Hank's balanced salt solution, and then subjected to filtration followed by addition of Hank's balanced salt solution to make the tissue suspension volume 35 mL. The resultant tissue suspension was mixed and then allowed to stand for 5 min. Supernatants were removed with an aspirator except that 5 mL of the solution was retained, and the remaining solution was remixed with Hank's balanced salt solution to make the tissue suspension volume 35 mL. […] After incubation in a Krebs-Ringer bicarbonate buffer (KRBB, 119 mM NaCl, 4.74 mM KCl, 2.54 mM CaCl2, 1.19 mM MgCl2, 1.19 mM KH2PO4, 25 mM NaHCO3, and 10 mM HEPES, pH 7.4) containing 2.8 mM glucose at 37° C. for 1 hr, the islets of Langerhans were dispensed in a 24-well plate at 10 islets per well, and incubated in KRBB containing 2.8, 5.6 or 16.7 mM glucose, respectively, at 37° C. for 1 hr. Each supernatant sample collected was assayed for insulin with rat insulin [^125I] Biotrak Assay System (Amersham).

obese animals = conditions: cited from earlier work

SMILES: Cc1cc(SCc2sc(-c3ccc(C(F)(F)F)cc3)nc2C)ccc1OCC(=O)O [GW501516, 2-{2-methyl-4-[({4-methyl-2-[4-(trifluoromethyl)phenyl]-1,3-thiazol-5-yl}methyl)thio]phenoxy}acetic acid]
- dose dependence of insulin secretion when stimulated with elevated glucose levels ([1]; 10 or 100 nM GW501516, elevated glucose levels): increased dose-dependently insulin secretion
- insulin secretion on stimulation with glucose ([1]; islets from C57BL/6J mice): significant insulin secretion
- insulin secretion on stimulation with glucose ([1]; islets from Lepr^db/Lepr^db mice): significant insulin secretion
- effect on diabetes (plasma glucose and blood insulin levels) (obese animals; genetically obese animals): improve diabetes as revealed by the decrease in plasma glucose and blood insulin levels
- effect on obesity and insulin resistance (obese animals; obese animals induced by high-fat dieting): ameliorate obesity and insulin resistance
